Results published in ChEMBL document CHEMBL3627608, “Crystal structures of human RIP2 kinase catalytic domain complexed with ATP-competitive inhibitors: Foundations for understanding inhibitor selectivity” (Bioorg Med Chem, 2015).

Key:
[1] = biological target: Ribosomal protein S6 kinase alpha-1 (Homo sapiens) (UniProt Q15418); test: Inhibition of RSK1 (unknown origin) at 10 uM after 120 mins P33 radiolabeled kinase activity assay
[2] = biological target: T1, Serine/threonine-protein kinase A-Raf (Homo sapiens) (UniProt P10398); test: Inhibition of ARAF (unknown origin) at 10 uM after 120 mins P33 radiolabeled kinase activity assay
T1 sequence (whole entry): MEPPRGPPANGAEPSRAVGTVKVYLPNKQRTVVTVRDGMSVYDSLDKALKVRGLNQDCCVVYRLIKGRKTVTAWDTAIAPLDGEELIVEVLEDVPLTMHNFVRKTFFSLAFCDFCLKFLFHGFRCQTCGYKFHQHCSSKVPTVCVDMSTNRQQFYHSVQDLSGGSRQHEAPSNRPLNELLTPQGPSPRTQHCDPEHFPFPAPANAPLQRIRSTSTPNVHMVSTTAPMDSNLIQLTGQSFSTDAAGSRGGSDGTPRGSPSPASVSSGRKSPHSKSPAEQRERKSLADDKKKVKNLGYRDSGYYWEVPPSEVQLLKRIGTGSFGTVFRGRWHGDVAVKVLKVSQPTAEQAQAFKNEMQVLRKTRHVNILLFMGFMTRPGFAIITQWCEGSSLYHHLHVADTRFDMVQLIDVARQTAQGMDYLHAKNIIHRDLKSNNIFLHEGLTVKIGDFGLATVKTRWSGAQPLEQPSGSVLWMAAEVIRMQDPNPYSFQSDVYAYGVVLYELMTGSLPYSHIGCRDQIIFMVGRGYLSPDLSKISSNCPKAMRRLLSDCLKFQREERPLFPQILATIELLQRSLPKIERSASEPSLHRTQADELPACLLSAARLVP

[3] = biological target: T2, Mitogen-activated protein kinase kinase kinase 6 (Homo sapiens) (UniProt O95382); test: Inhibition of MEKK6 (unknown origin) at 10 uM after 120 mins P33 radiolabeled kinase activity assay
T2 sequence (whole entry): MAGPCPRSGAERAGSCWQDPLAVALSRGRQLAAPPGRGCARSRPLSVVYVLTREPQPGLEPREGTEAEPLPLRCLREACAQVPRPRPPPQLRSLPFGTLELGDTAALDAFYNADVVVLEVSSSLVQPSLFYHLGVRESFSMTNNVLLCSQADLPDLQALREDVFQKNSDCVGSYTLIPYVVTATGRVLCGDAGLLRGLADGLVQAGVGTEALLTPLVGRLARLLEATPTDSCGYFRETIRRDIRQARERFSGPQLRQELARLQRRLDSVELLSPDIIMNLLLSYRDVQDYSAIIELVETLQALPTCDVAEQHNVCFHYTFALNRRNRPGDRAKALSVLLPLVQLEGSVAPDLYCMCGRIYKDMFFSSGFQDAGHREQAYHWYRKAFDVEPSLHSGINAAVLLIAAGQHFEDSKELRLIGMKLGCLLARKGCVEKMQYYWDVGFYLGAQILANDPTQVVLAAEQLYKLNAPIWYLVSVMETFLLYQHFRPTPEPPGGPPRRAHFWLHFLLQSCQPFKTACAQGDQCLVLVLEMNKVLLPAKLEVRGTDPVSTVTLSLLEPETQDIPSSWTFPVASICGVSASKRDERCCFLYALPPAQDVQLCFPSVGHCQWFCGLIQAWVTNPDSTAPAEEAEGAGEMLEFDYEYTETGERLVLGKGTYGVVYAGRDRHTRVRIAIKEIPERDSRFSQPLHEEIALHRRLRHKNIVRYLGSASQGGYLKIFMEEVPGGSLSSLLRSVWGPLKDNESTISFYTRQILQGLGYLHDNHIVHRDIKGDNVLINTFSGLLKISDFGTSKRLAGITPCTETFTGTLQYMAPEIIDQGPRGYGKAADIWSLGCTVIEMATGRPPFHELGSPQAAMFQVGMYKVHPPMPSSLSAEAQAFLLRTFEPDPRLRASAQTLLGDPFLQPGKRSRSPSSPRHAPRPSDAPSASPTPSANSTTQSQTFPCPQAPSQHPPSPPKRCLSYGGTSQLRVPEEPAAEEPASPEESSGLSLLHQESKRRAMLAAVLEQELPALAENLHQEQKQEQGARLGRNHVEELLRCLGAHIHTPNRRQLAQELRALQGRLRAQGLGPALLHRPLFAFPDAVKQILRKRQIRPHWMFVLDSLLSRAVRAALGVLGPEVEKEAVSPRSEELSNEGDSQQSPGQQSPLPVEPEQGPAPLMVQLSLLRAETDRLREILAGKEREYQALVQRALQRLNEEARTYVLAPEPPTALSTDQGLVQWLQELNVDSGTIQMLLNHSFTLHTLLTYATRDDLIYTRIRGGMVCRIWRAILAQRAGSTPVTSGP

[4] = biological target: Insulin-like growth factor 1 receptor (Homo sapiens) (UniProt P08069); test: Inhibition of IGF1R (unknown origin) at 10 uM after 120 mins P33 radiolabeled kinase activity assay
[5] = biological target: Interleukin-1 receptor-associated kinase 1 (Homo sapiens) (UniProt P51617); test: Inhibition of IRAK1 (unknown origin) at 10 uM after 120 mins P33 radiolabeled kinase activity assay
[6] = biological target: CDK1/Cyclin A (Homo sapiens) (UniProt P06493+P20248); test: Inhibition of CDK1/cyclin A (unknown origin) at 10 uM after 120 mins P33 radiolabeled kinase activity assay; format: protein-complex assay
[7] = biological target: CDK9/cyclin T1 (Homo sapiens) (UniProt O60563+P50750); test: Inhibition of CDK9/cyclin T1 (unknown origin) at 10 uM after 120 mins P33 radiolabeled kinase activity assay; format: protein-complex assay
[8] = biological target: Calcium/calmodulin-dependent protein kinase type 1G (Homo sapiens) (UniProt Q96NX5); test: Inhibition of CAMK1gamma (unknown origin) at 10 uM after 120 mins P33 radiolabeled kinase activity assay
[9] = biological target: RAC-beta serine/threonine-protein kinase (Homo sapiens) (UniProt P31751); test: Inhibition of AKT2 (unknown origin) at 10 uM after 120 mins P33 radiolabeled kinase activity assay
[10] = biological target: Dual specificity mitogen-activated protein kinase kinase 2 (Homo sapiens) (UniProt P36507); test: Inhibition of MEK2 (unknown origin) at 10 uM after 120 mins P33 radiolabeled kinase activity assay
[11] = biological target: Calcium/calmodulin-dependent protein kinase type II subunit gamma (Homo sapiens) (UniProt Q13555); test: Inhibition of CAMK2gamma (unknown origin) at 10 uM after 120 mins P33 radiolabeled kinase activity assay
Chain of Calcium/calmodulin-dependent protein kinase type II subunit gamma (Homo sapiens) (Q13555 whole entry): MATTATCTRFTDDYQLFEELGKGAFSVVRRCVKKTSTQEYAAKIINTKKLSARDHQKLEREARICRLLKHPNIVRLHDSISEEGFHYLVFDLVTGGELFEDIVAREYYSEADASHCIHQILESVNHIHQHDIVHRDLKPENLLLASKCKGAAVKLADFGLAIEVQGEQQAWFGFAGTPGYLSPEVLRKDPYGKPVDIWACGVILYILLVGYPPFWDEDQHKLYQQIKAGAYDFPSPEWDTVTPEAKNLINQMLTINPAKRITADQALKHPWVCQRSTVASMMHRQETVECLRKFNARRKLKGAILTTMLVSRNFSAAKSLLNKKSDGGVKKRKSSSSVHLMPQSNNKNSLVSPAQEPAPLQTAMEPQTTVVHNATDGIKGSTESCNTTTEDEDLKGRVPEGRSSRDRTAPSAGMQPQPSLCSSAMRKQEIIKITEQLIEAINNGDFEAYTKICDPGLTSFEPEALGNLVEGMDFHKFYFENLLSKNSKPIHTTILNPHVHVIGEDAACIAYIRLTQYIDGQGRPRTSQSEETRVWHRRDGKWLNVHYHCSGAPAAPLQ

Chain of Calcium/calmodulin-dependent protein kinase type 1G (Homo sapiens) (Q96NX5 whole entry): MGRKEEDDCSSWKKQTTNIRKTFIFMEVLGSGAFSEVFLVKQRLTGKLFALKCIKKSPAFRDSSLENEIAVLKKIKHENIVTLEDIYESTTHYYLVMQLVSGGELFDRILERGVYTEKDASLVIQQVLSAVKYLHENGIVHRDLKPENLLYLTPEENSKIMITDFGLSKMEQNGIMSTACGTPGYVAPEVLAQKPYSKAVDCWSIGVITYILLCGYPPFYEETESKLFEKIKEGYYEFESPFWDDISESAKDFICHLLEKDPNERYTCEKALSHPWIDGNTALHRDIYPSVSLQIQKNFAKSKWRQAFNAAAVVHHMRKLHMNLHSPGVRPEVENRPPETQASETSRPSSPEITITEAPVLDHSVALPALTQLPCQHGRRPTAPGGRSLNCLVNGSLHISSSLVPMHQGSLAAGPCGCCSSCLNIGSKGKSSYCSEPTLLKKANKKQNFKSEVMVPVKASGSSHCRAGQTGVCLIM
Chain of Dual specificity mitogen-activated protein kinase kinase 2 (Homo sapiens) (P36507 whole entry): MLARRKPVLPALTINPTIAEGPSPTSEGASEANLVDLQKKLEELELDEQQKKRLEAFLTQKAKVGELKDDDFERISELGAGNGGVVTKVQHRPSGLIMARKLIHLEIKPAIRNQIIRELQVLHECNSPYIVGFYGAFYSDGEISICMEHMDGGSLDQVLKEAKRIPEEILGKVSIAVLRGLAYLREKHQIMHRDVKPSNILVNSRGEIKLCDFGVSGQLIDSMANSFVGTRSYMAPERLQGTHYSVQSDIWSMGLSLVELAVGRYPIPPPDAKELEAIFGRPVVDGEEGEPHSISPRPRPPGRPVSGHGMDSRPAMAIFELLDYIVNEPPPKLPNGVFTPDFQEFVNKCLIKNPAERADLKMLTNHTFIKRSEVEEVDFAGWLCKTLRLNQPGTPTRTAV
Chain of Ribosomal protein S6 kinase alpha-1 (Homo sapiens) (Q15418 whole entry): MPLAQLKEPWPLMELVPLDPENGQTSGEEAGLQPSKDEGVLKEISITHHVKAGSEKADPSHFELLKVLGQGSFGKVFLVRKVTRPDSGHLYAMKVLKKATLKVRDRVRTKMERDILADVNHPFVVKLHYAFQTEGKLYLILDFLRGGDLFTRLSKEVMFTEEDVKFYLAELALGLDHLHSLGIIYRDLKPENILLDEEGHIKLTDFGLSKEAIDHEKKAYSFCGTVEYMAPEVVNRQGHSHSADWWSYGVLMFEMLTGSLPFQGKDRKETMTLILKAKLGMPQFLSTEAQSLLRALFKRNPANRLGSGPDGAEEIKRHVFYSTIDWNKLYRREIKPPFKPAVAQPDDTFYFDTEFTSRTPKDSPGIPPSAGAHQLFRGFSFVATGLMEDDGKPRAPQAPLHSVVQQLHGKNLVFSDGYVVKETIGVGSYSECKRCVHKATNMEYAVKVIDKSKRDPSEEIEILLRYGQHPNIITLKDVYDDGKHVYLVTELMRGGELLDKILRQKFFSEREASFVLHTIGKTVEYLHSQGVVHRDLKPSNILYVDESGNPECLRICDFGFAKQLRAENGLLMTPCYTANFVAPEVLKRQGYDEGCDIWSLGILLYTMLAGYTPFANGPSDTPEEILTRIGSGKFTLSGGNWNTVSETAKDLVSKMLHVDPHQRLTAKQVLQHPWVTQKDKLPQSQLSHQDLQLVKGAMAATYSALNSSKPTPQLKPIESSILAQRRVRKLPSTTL
Chain of RAC-beta serine/threonine-protein kinase (Homo sapiens) (P31751 whole entry): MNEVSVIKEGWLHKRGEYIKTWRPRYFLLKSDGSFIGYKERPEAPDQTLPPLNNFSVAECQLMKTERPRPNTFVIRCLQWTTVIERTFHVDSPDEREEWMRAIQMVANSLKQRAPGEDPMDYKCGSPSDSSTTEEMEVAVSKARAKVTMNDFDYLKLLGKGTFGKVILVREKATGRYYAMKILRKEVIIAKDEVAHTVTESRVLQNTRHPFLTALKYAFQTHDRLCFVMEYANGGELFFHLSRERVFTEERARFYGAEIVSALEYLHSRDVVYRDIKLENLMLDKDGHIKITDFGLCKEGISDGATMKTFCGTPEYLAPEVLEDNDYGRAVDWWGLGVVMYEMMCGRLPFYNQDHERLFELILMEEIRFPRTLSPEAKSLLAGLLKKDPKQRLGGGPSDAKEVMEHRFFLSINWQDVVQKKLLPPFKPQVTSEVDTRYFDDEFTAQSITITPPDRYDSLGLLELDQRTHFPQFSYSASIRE
Chain of Interleukin-1 receptor-associated kinase 1 (Homo sapiens) (P51617 whole entry, looked up): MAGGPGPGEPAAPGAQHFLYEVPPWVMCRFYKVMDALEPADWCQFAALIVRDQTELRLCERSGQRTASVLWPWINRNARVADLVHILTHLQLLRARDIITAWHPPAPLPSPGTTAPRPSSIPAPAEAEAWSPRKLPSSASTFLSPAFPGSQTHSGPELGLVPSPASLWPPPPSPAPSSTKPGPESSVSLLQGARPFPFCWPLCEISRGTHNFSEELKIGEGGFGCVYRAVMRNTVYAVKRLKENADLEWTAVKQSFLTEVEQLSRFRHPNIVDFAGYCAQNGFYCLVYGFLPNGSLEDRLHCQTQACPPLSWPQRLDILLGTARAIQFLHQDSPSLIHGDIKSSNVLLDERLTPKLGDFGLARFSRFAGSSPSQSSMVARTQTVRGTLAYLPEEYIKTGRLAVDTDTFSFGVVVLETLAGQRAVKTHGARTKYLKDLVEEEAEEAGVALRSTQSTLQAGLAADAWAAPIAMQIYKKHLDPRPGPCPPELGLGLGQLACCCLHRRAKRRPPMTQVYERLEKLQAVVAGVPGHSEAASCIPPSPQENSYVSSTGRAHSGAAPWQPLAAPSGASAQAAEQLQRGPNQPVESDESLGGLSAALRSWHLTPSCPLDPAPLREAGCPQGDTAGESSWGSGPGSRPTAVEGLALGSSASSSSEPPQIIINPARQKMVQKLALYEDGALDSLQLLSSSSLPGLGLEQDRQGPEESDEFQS
Chain of Insulin-like growth factor 1 receptor (Homo sapiens) (P08069 31-736 limits assumed): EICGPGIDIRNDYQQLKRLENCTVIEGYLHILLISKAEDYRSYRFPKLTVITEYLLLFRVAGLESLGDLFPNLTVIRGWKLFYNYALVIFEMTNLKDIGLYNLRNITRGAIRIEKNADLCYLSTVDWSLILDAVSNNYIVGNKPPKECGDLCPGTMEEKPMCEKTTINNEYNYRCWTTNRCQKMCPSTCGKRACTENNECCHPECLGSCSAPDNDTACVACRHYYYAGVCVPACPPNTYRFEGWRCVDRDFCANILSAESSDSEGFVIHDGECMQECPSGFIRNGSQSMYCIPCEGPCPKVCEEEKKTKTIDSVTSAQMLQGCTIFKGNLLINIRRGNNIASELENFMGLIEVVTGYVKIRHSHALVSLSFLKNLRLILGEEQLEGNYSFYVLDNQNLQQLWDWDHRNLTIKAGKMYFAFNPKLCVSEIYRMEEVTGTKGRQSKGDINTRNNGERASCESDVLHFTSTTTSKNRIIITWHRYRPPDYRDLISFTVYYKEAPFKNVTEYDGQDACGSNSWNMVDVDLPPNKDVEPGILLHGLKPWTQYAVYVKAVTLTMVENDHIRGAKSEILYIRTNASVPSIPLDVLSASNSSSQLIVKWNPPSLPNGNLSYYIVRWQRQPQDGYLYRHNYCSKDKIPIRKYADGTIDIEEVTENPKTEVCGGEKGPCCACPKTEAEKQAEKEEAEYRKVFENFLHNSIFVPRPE
Chain of Insulin-like growth factor 1 receptor (Homo sapiens) (P08069 741-1367 limits assumed): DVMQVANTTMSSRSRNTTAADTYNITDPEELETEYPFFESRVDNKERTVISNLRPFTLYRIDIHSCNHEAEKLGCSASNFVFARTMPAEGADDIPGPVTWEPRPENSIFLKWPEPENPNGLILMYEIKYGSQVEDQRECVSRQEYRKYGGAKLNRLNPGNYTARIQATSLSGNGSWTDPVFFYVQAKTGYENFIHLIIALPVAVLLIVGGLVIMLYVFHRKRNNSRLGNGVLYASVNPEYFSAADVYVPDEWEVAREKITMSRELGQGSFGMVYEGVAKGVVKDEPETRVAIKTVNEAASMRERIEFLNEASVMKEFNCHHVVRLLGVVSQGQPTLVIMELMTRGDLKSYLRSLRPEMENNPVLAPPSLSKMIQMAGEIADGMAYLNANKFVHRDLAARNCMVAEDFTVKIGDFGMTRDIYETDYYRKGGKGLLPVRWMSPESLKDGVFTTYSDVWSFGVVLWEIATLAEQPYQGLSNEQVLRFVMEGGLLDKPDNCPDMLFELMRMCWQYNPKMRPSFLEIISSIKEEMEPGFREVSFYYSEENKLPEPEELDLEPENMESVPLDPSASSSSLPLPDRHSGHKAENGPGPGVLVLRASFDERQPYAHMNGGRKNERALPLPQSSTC

Row | SMILES | inhibition [1] [%] | inhibition [2] [%] | inhibition [3] [%] | inhibition [4] [%] | inhibition [5] [%] | inhibition [6] [%] | inhibition [7] [%] | inhibition [8] [%] | inhibition [9] [%] | inhibition [10] [%] | inhibition [11] [%]
1 | COCCNC(=O)c1ccc2c(c1)nc(-c1cnc(-c3ccc(Cl)cc3)[nH]1)n2CCOC | 11.6 | 75.8 | -0.42 | 2.21 | 5.62 | -6.11 | 5.79 | 8.82 | 18.9 | -5.83 | 9.22
2 | CS(=O)(=O)c1cccc(Nc2nccc(-c3sc(N4CCOCC4)nc3-c3cccc(NS(=O)(=O)c4c(F)cccc4F)c3)n2)c1 | 73 | 97.7 | -4.09 | 9.14 | 27.6 | 34.2 | 25.4 | 66.6 | 21.6 | 79 | 7.84
3 | CC(C)(C)c1cc(NC(=O)Nc2ccc(Oc3ccncc3)cc2)no1 | 52 | 96.2 | 4.35 | 2.82 | 99.1 | 7.46 | 78.7 | 20.9 | 20.6 | 52.5 | 3.21
